These results are taken from patent US20130101684A1, “Compounds, Compositions, And Methods For Reducing Or Eliminating Bitter Taste” (Chromocell Corporation, priority 2010, published 2013).

Holding throughout (format): in vivo, humans
Test [1] deals with bitter taste of KCl foodstuff slurries. The test can be described thus: Two-alternative forced choice (2AFC) sip and spit test of KCl turkey foodstuff slurries. The note with it: turkey slurry with KCl 1.6%, 1% EtOH, 2AFC vs KCl slurry standard, dash = at none of the tested conc.; for minimal effective concentration: Homo sapiens. As for the experimental part:
Edible KCl food compositions (“KCl test foodstuff slurries”) were prepared as follows. Dehydrated, salt-free turkey powder was weighed and mixed with various amounts of KCl and/or NaCl and then solubilized with boiling water to create a homogenized solubilized turkey slurry. Varying amounts of the test compounds were dissolved in an amount of ethanol or water (depending on the solubility of the compound) to create a 5 mg/mL stock compound solution. An amount of this stock compound solution was then added to the turkey slurry. Enough EtOH is then added to the resulting stock compound/turkey slurry so that the slurry contains 1% EtOH. The slurry was again homogenized by boiling and mixing and allowed to cool to yield the final KCl test foodstuff slurry for taste testing. KCl foodstuff slurry standards were similarly prepared without any test compound. […] The effect of the test compounds on the perception of the bitter taste of KCl foodstuff slurries in humans was evaluated using a two-alternative-forced-choice “sip and spit” test as follows. In a blind taste test, panelists received two portions of turkey slurry—one portion being the KCl foodstuff slurry standard and the other being one of the KCl test foodstuff slurries (each prepared as described in Example 5). The panelists tasted each of the portions by sipping and spitting. Each sample was tested in 2-4 discrete taste test experiments. Panelists were asked to rinse with water, eat a cracker, and wait about 10 minutes between samples. In each case, the panelists were asked to compare the bitter taste of the two turkey samples to each other (i.e. panelists were asked to indicate which sample was less bitter).

The subject of test [2] is bitter taste of an aqueous solution of potassium lactate. As to the kind of experiment: Sip and spit taste test of aqueous potassium lactate test solutions. The following applies: aqueous potassium lactate (KLac) 41 g/L, 1% EtOH, human panel, dash = at none of the tested conc. As for the experimental part:
A set of KCl solutions standards was developed and each standard solution was assigned a bitterness taste score of 0-15 (corresponding to aqueous KCl concentrations of 0 mM-120 mM). Panelists were trained to recognize these standards. In addition, before each day of testing, panelists were tested to see if they could determine differences in taste between the standard solutions, if a panelist was unable to recognize a change in KCl concentration, they were excluded from the panel for that day. In a blind taste test, panelists were asked to compare the bitter taste of a small quantity (e.g. 8 ml) of each of the KCl Test Solutions to the taste of a KCl solution standard, without swallowing (see, e.g., Table 1). Specifically, panelists were asked to rate the bitterness of each KCl Test Solution on a scale of 0-15 using the same scale developed for the KCl solution standards. Each sample was tested in 2-4 discrete taste test experiments. Panelists were asked to rinse with water, eat a cracker, and wait approximately 10 minutes between samples. Edible potassium lactate solution compositions (“potassium lactate test solutions”) were prepared by first dissolving varying amounts of the test compounds in an amount of ethanol or water (depending on the solubility of the compound) to create a 5 mg/mL stock compound solution. An amount of this stock compound solution is then added to an aqueous potassium lactate solution. Enough EtOH is then added to the resulting stock compound/potassium lactate solution so that the final potassium lactate test solution contains 1% EtOH. Potassium lactate solution standards were similarly prepared by dissolving various amounts of potassium lactate in water and ethanol without adding any test compound. […] The effect of the test compounds on the perception of the bitter taste of an aqueous solution of potassium lactate in humans was evaluated using the “sip and spit” test described in Example 2.

The subject of test [3] is bitter taste of an aqueous solution of KCl. The test can be described thus: Sip and spit taste test of aqueous KCl test solutions, bitterness rated 0-15 against KCl solution standards. The note with it: aqueous KCl 4.85 g/L, 1% EtOH, human panel, vs KCl solution standard, dash = at none of the tested conc. How it is done: Edible KCl solution compositions (“KCl test solutions”) were prepared by first dissolving varying amounts of the test compounds in an amount of ethanol or water (depending on the solubility of the compound) to create a 5 mg/mL stock compound solution. An amount of this stock compound solution is then added to an aqueous KCl solution. Enough EtOH is then added to the resulting stock compound/KCl solution so that the final KCl test solution contains 1% EtOH. KCl solution standards were similarly prepared by dissolving various amounts of KCl in water and ethanol without adding any test compound. […] The effect of the test compounds on the perception of the bitter taste of an aqueous solution of KCl in humans was evaluated using a “sip and Spit” test as follows. A set of KCl solutions standards was developed and each standard solution was assigned a bitterness taste score of 0-15 (corresponding to aqueous KCl concentrations of 0 mM-120 mM). Panelists were trained to recognize these standards. In addition, before each day of testing, panelists were tested to see if they could determine differences in taste between the standard solutions, if a panelist was unable to recognize a change in KCl concentration, they were excluded from the panel for that day. In a blind taste test, panelists were asked to compare the bitter taste of a small quantity (e.g. 8 ml) of each of the KCl Test Solutions to the taste of a KCl solution standard, without swallowing (see, e.g., Table 1). Specifically, panelists were asked to rate the bitterness of each KCl Test Solution on a scale of 0-15 using the same scale developed for the KCl solution standards. Each sample was tested in 2-4 discrete taste test experiments. Panelists were asked to rinse with water, eat a cracker, and wait approximately 10 minutes between samples.

Setting [4] is: read-out: Conc. at Which At Least 50% of Panelist Discerned Decrease in Bitter Taste.
Setting [5] is: read-out: Conc. Where Decrease in Bitter Taste Discerned and p ≦ 0.1.
[6] abbreviates: read-out: Conc. Where Decrease in Bitter Taste Was Discerned.
Setting [7] is: read-out: Conc. at Which At Least 50% of Panelist Discerned Decrease in Bitter Taste and p ≦ 0.1.

Read-outs that look alike come from different tables or passages of the source.

As for `COc1cc(CO)ccc1OCc1ccccc1C` [Compound 1], in test [1] (setting [4]), the minimal effective concentration is 1 µg/mL.

For the compound `COc1ccc(NC(=O)CCOc2cccc(C)c2)cc1` [Compound 52], in test [1], the “Conc. at Which At Least 50% of Panelist Discerned Decrease in Bitter Taste and p ≦ 0.1” value is on record as 10 ppm. Also, the “Conc. Where Decrease in Bitter Taste Discerned and p ≦ 0.1” value in test [2] is 30 ppm; in test [3], 10 ppm.

Take `CCn1ccc(C(=O)Nc2cc(OC)c(OC)cc2C(=O)OC)n1` [Compound 35]: the minimal effective concentration in test [1] (setting [4]) came out at 10 µg/mL; in test [3] (setting [5]) it was 1 µg/mL; in test [3] (setting [6]), 1 µg/mL.

For the compound `COc1ccc(CNc2cc(C)ccc2C)cc1OC` [Compound 14], in test [2], the “Conc. Where Decrease in Bitter Taste Was Discerned” value came out at 5 ppm. Besides, the “Conc. Where Decrease in Bitter Taste Discerned and p ≦ 0.1” value in test [3] is on record as 1 ppm.

As for `COC(=O)c1ccccc1NC(=O)c1c(Cl)cnn1C` [Compound 27], in test [1] (setting [4]), the minimal effective concentration amounted to 30 µg/mL.

Regarding `CCn1ccc(C(=O)Nc2ccccc2C(=O)OC)n1` [Compound 36], the minimal effective concentration in test [1] (setting [4]) and in test [3] (setting [5]) was 10 µg/mL throughout.

In the case of `Cc1ccc(NC(=O)CCOc2ccccc2)c(C)c1` [Compound 54], the minimal effective concentration in test [1] (setting [4]) came out at 1 µg/mL.

Consider `COC(=O)c1ccc(C)c(NC(=O)c2c(Cl)cnn2C)c1` [Compound 31], for which the “Conc. at Which At Least 50% of Panelist Discerned Decrease in Bitter Taste” value in test [1] is 1 ppm.

For `CCOc1ccc(CNc2ccccc2C)cc1OC` [Compound 3], the minimal effective concentration in test [2] (setting [5]) is 1 µg/mL; in test [3] (setting [5]), 2 µg/mL; in test [3] (setting [6]), 2 µg/mL.

For the compound `COc1ccc(NCc2ccccc2C)cc1OC` [Compound 20], the minimal effective concentration in test [2] (setting [5]) amounted to 5 µg/mL; in test [3] (setting [5]), 1 µg/mL.

Consider `COc1ccc(CNc2ccc(Br)cc2C)cc1OC` [Compound 8], for which the minimal effective concentration in test [3] (setting [6]) was found to be 1 µg/mL.

In the case of `CCn1ncc(Cl)c1C(=O)Nc1cc(Cl)ccc1Cl` [Compound 28], the “Conc. at Which At Least 50% of Panelist Discerned Decrease in Bitter Taste” value in test [1] amounted to 10 ppm.

`COc1ccccc1CNc1cc(C)ccc1OC` [Compound 19]: the values for the minimal effective concentration in test [1] (setting [7]), in test [3] (setting [5]) and in test [3] (setting [6]) were 10 µg/mL, 1 µg/mL and 1 µg/mL, respectively.

With `CCn1ncc(Cl)c1C(=O)Nc1cccc(Cl)c1Cl` [Compound 29], in test [1], the “Conc. at Which At Least 50% of Panelist Discerned Decrease in Bitter Taste” value amounted to 1 ppm; the “Conc. at Which At Least 50% of Panelist Discerned Decrease in Bitter Taste and p ≦ 0.1” value is 1 ppm. Also, the “Conc. Where Decrease in Bitter Taste Was Discerned” value in test [2] stood at 5 ppm. In addition, the “Conc. Where Decrease in Bitter Taste Discerned and p ≦ 0.1” value in test [3] was 10 ppm.

Take `CCCC(=O)Nc1ccc(C)c(Cl)c1` [Compound 50]: in test [3] (setting [6]), the minimal effective concentration amounted to 1 µg/mL.

Regarding `Cc1ccc2nc3c(F)c(N4CCOCC4)c(F)c(F)c3c(C)c2c1` [Compound 46], the results for the minimal effective concentration in test [1] (setting [4]), in test [2] (setting [6]) and in test [3] (setting [5]) were 1 µg/mL, 30 µg/mL and 1 µg/mL, respectively.

Consider `Cn1ncc(Cl)c1C(=O)Nc1ccccc1C(N)=O` [Compound 33], for which, in test [3] (setting [6]), the minimal effective concentration is 1 µg/mL.

On to `CCOc1ccc(CNc2ccc(C)cc2C)cc1OC` [Compound 17], for which the “Conc. Where Decrease in Bitter Taste Was Discerned” value in test [2] and in test [3] was 1 ppm each time.

Consider `CCOc1cc(CNc2ccccc2SC)ccc1OC` [Compound 4], for which, in test [3] (setting [5]), the minimal effective concentration is 10 µg/mL.

Take `CCOc1cc(CNc2cccc(Cl)c2C)ccc1OC` [Compound 6]: the minimal effective concentration in test [3] (setting [6]) amounted to 1 µg/mL.

As for `CCOc1cc(CNc2cc(C)ccc2C)ccc1OC` [Compound 12], the minimal effective concentration in test [1] (setting [4]) and in test [3] (setting [5]) was 10 µg/mL each time.

With `COc1cc(CNc2cccc(C)c2C)ccc1OCc1ccccc1` [Compound 22], the minimal effective concentration in test [3] (setting [5]) is 1 µg/mL.

On to `Cc1c2ccccc2nc2c(F)c(N3CCCC3)c(F)c(F)c12` [Compound 45], for which the minimal effective concentration is 1 µg/mL in test [1] (setting [4]) and 0.1 µg/mL in test [3] (setting [5]).

For `COc1cc(/C=N/c2ccccc2C)ccc1O` [Compound 2], the minimal effective concentration in test [1] (setting [4]) turned out to be 10 µg/mL; in test [3] (setting [5]), 1 µg/mL.

On to `COc1ccc(OC)c(CNc2cc(C)ccc2C)c1` [Compound 7], for which the “Conc. at Which At Least 50% of Panelist Discerned Decrease in Bitter Taste” value in test [1] is reported as 1 ppm. In test [3], the “Conc. Where Decrease in Bitter Taste Discerned and p ≦ 0.1” value worked out at 1 ppm; the “Conc. Where Decrease in Bitter Taste Was Discerned” value is listed as 1 ppm.

Take `COc1cccc(CNc2cc(C)ccc2C)c1OC` [Compound 15]: the minimal effective concentration in test [1] (setting [4]), in test [1] (setting [7]) and in test [3] (setting [5]) was 10 µg/mL throughout.

`Cc1c2ccccc2nc2c(F)c(N3CCN(C)CC3)c(F)c(F)c12` [Compound 44]: the minimal effective concentration in test [1] (setting [4]), in test [2] (setting [5]), in test [3] (setting [5]) and in test [3] (setting [6]) was 10 µg/mL in each case.

Regarding `COc1cccc(CNc2cccc(C)c2)c1OC` [Compound 5], the minimal effective concentration in test [3] (setting [6]) came out at 10 µg/mL.

With `CCOc1cc(CNc2ccccc2)ccc1OC` [Compound 10], in test [3], the “Conc. Where Decrease in Bitter Taste Discerned and p ≦ 0.1” value came out at 1 ppm.

In the case of `O=C(O)c1cc(Br)cc2c1NC(c1ccc(Cl)cc1)C1CC=CC21` (centres unmarked) [Compound 43], the minimal effective concentration in test [3] (setting [6]) came out at 1 µg/mL.

Regarding `COC(=O)c1cccc2c1NC(c1ccc(Cl)cc1)C1CC=CC21` (centres unmarked) [Compound 42], the minimal effective concentration in test [1] (setting [4]) was determined as 1 µg/mL.

Take `CC(=O)Oc1ccc(C2Nc3c(C(=O)O)cccc3C3C=CCC32)cc1` (centres unmarked) [Compound 39]: in test [1] (setting [7]), the minimal effective concentration is 10 µg/mL.

Regarding `Cc1nc2c(C)ccc(C)c2c(O)c1CN1CCN(c2ccccc2)CC1` [Compound 47], the minimal effective concentration in test [1] (setting [4]) and in test [1] (setting [7]) was 10 µg/mL each time.

As to `Cc1nc2c(C)cccc2c(O)c1CN1CCN(c2ccccc2)CC1` [Compound 48], the minimal effective concentration is 10 µg/mL in test [1] (setting [4]), 1 µg/mL in test [2] (setting [5]), 1 µg/mL in test [2] (setting [6]) and 1 µg/mL in test [3] (setting [5]).
